Laboratory results from patent US20130196050A1, “SALTY TASTE ENHANCER” (AJINOMOTO CO., INC., priority 2010, published 2013).

target: T1, Human ENaC δ, β and γ subunit (Homo sapiens, UniProt P51168+P51170+P51172); test: Measurement of ENaC activation potency (two electrode voltage clamp current in ENaC-expressing oocyte); assay type: cell-based; conditions: lowest concentration increasing the current value by not less than 10% vs before addition
T1 construct: expressed in transfected cells; host or cells: Xenopus laevis (African clawed frog) oocytes injected with cRNA
T1 sequence (P51172 1-638 isoform P51172-1): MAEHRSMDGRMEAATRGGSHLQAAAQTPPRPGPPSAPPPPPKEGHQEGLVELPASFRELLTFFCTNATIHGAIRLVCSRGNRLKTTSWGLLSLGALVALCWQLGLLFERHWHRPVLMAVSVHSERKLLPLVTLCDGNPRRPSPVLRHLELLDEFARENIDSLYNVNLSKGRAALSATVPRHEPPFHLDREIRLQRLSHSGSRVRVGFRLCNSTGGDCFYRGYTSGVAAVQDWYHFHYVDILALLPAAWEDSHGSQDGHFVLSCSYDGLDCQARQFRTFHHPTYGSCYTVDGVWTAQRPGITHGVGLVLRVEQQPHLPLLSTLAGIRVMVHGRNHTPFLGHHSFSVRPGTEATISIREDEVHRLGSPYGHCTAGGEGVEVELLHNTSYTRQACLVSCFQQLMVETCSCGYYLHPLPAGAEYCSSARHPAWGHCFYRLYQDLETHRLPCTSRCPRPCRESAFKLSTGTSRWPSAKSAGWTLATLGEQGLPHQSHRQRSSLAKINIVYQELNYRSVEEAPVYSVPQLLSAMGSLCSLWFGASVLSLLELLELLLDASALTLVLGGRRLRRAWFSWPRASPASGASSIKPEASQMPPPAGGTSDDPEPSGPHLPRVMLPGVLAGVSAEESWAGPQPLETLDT
T1 sequence (P51168 1-640): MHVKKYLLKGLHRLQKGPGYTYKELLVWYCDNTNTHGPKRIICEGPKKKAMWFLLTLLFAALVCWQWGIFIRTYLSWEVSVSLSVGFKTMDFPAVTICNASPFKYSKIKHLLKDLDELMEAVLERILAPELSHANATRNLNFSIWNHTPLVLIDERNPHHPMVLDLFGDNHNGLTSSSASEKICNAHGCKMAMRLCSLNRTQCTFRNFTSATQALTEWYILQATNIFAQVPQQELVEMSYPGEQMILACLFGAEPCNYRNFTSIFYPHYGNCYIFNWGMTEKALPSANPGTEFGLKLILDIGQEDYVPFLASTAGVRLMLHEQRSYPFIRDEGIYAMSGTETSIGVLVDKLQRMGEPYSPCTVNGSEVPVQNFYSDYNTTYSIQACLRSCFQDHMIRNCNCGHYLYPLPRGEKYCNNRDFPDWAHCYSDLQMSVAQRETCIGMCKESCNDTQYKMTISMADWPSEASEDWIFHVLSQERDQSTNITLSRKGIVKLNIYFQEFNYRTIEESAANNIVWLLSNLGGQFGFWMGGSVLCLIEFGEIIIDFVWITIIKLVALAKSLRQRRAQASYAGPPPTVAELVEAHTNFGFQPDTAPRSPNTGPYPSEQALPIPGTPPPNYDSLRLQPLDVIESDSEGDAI
T1 sequence (P51170 1-649): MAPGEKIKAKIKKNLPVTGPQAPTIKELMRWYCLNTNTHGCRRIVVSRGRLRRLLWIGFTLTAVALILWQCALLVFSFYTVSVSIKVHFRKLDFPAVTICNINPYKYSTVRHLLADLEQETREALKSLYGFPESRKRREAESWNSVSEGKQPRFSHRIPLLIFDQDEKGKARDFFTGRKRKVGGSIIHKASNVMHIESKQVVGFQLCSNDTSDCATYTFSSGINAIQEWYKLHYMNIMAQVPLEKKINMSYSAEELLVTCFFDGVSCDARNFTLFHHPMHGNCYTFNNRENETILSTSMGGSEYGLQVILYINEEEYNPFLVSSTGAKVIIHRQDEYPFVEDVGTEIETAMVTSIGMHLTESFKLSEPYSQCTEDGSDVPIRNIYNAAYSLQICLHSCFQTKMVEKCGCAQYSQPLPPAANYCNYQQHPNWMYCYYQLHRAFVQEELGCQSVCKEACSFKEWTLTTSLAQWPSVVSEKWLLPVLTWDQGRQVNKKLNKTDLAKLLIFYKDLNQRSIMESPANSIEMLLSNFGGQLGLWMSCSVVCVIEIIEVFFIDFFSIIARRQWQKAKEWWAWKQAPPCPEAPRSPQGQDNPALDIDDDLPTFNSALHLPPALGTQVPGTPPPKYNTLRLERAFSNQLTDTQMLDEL
Description: ENaC activation current value, namely, the inward current in ENaC-expressing oocyte was measured as follows.
According to the method described in Motonao Nakamura, Takao Shimizu: Experiment of African clawed frog oocyte, Experimental Medicine Vol. 11, No. 3, 224-232 (1993), oocyte was collected from African clawed frog, […], and the current value was measured by a Two Electrode Voltage Clamp technique. In the present invention, ND96 (96 mM NaCl, 2 mM KCl, 1 mM MgCl2, 5 mM Hepes, 1.8 mM CaCl2, pH 7.6) was used instead of MBS buffer in the above-mentioned document. Injector NANOLITER 2000 manufactured by World Precision Instruments was used for microinjection, OpusXpress 6000A manufactured by Molecular Devices was used for current value measurement by a Two Electrode Voltage Clamp technique, and Clampfit 10.2 software manufactured by Molecular Devices was used for data analysis.
Human ENaC δ, β and γ subunit genes shown by SEQ ID NOs: 1, 2 and 3, respectively, in the Sequence Listing were each cloned into a plasmid vector, and used as a template DNA for cRNA synthesis. cRNA was synthesized using MEGAscript kit manufactured by Ambion and according to the method of the manual of the manufacturer.
A mixture of the same amount of ENaC δ subunit cRNA (0.4 to 0.8 μg/μL), and β and γ subunits cRNA (0.4 μg/μL) was injected into the oocyte of African clawed frog at 27.6 nL per oocyte, and the oocyte was cultured for 16 hours to 72 hours. Thereafter, the oocyte was set on a measuring apparatus OpusXpress 6000A, the electrodes were inserted into the oocyte, the voltage was clamped at a level lower by −30 mV than the resting membrane potential by a Two Electrode Voltage Clamp technique, and the current value was measured.
To measure the ENaC activation potency, oocyte was stimulated with each test compound, and the minimum effective dose (hereinafter to be abbreviated as MED) of the compound at the time point when the electric current started to increase was measured. In this case, the minimum effective dose of the stimulation compound that increased the current value by not less than 10%, as compared to the current value before addition of the compound and without stimulation, was taken as MED. A smaller MED means higher ENaC activation potency.
Each test compound was directly dissolved in ND96, or first dissolved in dimethyl sulfoxide (DMSO) to 100 mM, and then prepared by diluting the solution with ND96 to a concentration used for the evaluation. The concentration of the test compound in ND96 was prepared to various concentrations within the range of 0.1 nM to 300 μm.
ND96 as a perfusion fluid was flowed at a rate of 0.5 mL/min through the measuring apparatus OpusXpress 6000A on which ENaC-expressing oocyte was set, the perfusion fluid was temporarily stopped every 3 minutes to add a test compound solution (0.25 mL) dissolved in ND96 at a rate of 0.5 mL/minute. In this way, the test compound was contacted with ENaC-expressing oocyte, and whether ENaC is activated by the compound was examined by measuring the current value. After addition of the test compound, feeding of the perfusion fluid was resumed to wash away the compound to be ready for the next addition of the compound.
The compound was added successively from a low concentration to a high concentration to stimulate ENaC-expressing oocyte. The concentrations actually added was, for example, 1 nM, 3 nM, 10 nM, 30 nM, 100 nM, 300 nM; 1 μM, 3 μM, 10 μm, 30 μm, 100 μm, 300 μm; 1.2 μM, 6 μM, 30 μm, 150 μm of one test compound. The compound was added from low concentrations to high concentrations at 3 minute intervals. The first compound was added from a low concentration to a high concentration, then the second and the third compounds were similarly added successively to the same oocyte, and changes in the current value were measured. The current value was continuously measured from the start to the end of the experiment. […]

Question: Which “MED value (minimum effective dose)” value does the source give for `O=C(NCCc1c[nH]c2ccccc12)c1cc(O)ccc1O` [Example 42] here?
Answer: 1 to 3 µM

Question: `O=C(N[C@@H](Cc1c[nH]c2ccc(O)cc12)C(=O)O)c1c(O)cccc1O` [Example 12] was tested. Which “MED value (minimum effective dose)” value did it give?
Answer: 3 µM

Question: `Cc1ccc2c(CC(NC(=O)CCc3ccccc3)C(=O)O)c[nH]c2c1` (stereo not drawn) [Example 77] was tested. Which “MED value (minimum effective dose)” value did it give?
Answer: 1 to 3 µM

Question: How did the “MED value (minimum effective dose)” value turn out when `COC(=O)[C@H](Cc1c[nH]c2ccccc12)NC(=O)c1c(O)cc(O)cc1O` [Example 120] was run?
Answer: 0.3 µM

Question: For `CN(C(=O)CCc1ccccc1)[C@@H](Cc1ccccc1)C(=O)O` [Example 78], which “MED value (minimum effective dose)” value is on record?
Answer: 3 µM

Question: How did the “MED value (minimum effective dose)” value turn out when `N[C@@H](CCc1ccccc1)C(=O)Nc1c(O)cccc1O` [Example 81] was run?
Answer: 3 µM

Question: `O=C(CCc1ccccc1)NC(C(=O)O)c1ccccc1` (stereo not drawn) [Example 79] was tested. Which “MED value (minimum effective dose)” value did it give?
Answer: 10 µM

Question: For `O=C(NCCc1c[nH]c2ccc(O)cc12)c1c(O)cc(O)cc1O` [Example 28], which “MED value (minimum effective dose)” value is on record?
Answer: 1 to 3 µM

Question: How did the “MED value (minimum effective dose)” value turn out when `N[C@@H](Cc1c[nH]c2ccccc12)C(=O)Nc1ccccc1S(=O)(=O)O` [Example 119] was run?
Answer: 0.3 µM

Question: How did the “MED value (minimum effective dose)” value turn out when `COC(=O)[C@H](Cc1ccccc1)NC(=O)c1cc(Br)ccc1O` [Example 96] was run?
Answer: 1 µM

Question: `O=C(N[C@@H](Cc1ccccc1)C(=O)O)c1c(O)cccc1O` [Example 82] was tested. Which “MED value (minimum effective dose)” value did it give?
Answer: 1 µM

Question: How did the “MED value (minimum effective dose)” value turn out when `O=C(NCCc1c[nH]c2ccc(O)cc12)c1c(C(F)(F)F)cccc1C(F)(F)F` [Example 26] was run?
Answer: 6 µM

Question: For `Cc1cc(O)c(C(=O)N[C@@H](Cc2ccccc2)C(=O)O)c(O)c1` [Example 115], which “MED value (minimum effective dose)” value is on record?
Answer: 0.3 µM

Question: `CCOC(=O)[C@H](Cc1ccccc1)NC(=O)c1c(O)cc(C)cc1O` [Example 114] was tested. Which “MED value (minimum effective dose)” value did it give?
Answer: 10 µM

Question: For `O=C(CCc1ccccc1)N[C@@H](Cc1ccccc1)C(=O)O` [Example 72], which “MED value (minimum effective dose)” value is on record?
Answer: 1 to 3 µM

Question: How did the “MED value (minimum effective dose)” value turn out when `O=C(N[C@@H](Cc1ccccc1)C(=O)O)c1ccc(Br)cc1O` [Example 108] was run?
Answer: 0.1 to 0.3 µM

Question: For `O=C(N[C@H](Cc1c[nH]c2ccccc12)C(=O)O)c1c(O)cccc1O` [Example 4], which “MED value (minimum effective dose)” value is on record?
Answer: 0.6 µM

Question: With `COC(=O)[C@H](CCc1ccccc1)NC(=O)c1c(O)cc(C)cc1O` [Example 116] as the compound, how does the “MED value (minimum effective dose)” value read?
Answer: 3 to 10 µM

Question: With `CC(C)(C)OC(=O)N[C@@H](Cc1c[nH]c2ccccc12)C(=O)Nc1c(O)cccc1O` [Example 20] as the compound, how does the “MED value (minimum effective dose)” value read?
Answer: 10 µM

Question: With `O=C(NCCc1c[nH]c2ccc(O)cc12)c1ccc(Br)cc1O` [Example 104] as the compound, how does the “MED value (minimum effective dose)” value read?
Answer: 3 µM

Question: `COC(=O)[C@H](Cc1cn(C)c2ccccc12)NC(=O)c1c(O)cccc1O` [Example 11] was tested. Which “MED value (minimum effective dose)” value did it give?
Answer: 3 µM

Question: Which “MED value (minimum effective dose)” value does the source give for `COC(=O)[C@H](Cc1c[nH]c2ccccc12)NC(=O)c1cc(Br)ccc1O` [Example 92] here?
Answer: 3 to 10 µM

Question: Which “MED value (minimum effective dose)” value does the source give for `COc1cccc(OC)c1C(=O)NCCc1c[nH]c2ccc(O)cc12` [Example 25] here?
Answer: 3 µM

Question: `O=C(O)c1ccccc1C(=O)NCCc1c[nH]c2ccc(O)cc12` [Example 9] was tested. Which “MED value (minimum effective dose)” value did it give?
Answer: 3 µM

Question: For `COC(=O)C(C)(Cc1c[nH]c2ccccc12)NC(=O)c1c(O)cccc1O` (stereo not drawn) [Example 16], which “MED value (minimum effective dose)” value is on record?
Answer: 3 µM

Question: With `O=C(N[C@@H](Cc1c[nH]c2ccccc12)C(=O)O)c1c(O)cc(O)cc1O` [Example 121] as the compound, how does the “MED value (minimum effective dose)” value read?
Answer: 3 µM

Question: With `Cc1cc(O)c(C(=O)NCCc2c[nH]c3ccc(O)cc23)c(O)c1` [Example 29] as the compound, how does the “MED value (minimum effective dose)” value read?
Answer: 1 to 3 µM

Question: Which “MED value (minimum effective dose)” value does the source give for `COC(=O)[C@@H](Cc1c[nH]c2ccccc12)NC(=O)c1c(O)cccc1O` [Example 2] here?
Answer: 0.6 µM

Question: With `O=C(N[C@H](Cc1c[nH]c2ccccc12)C(=O)O)c1cc(O)ccc1O` [Example 41] as the compound, how does the “MED value (minimum effective dose)” value read?
Answer: 1 µM

Question: With `COc1ccc(CCC(=O)N[C@@H](Cc2c[nH]c3ccccc23)C(=O)O)cc1` [Example 65] as the compound, how does the “MED value (minimum effective dose)” value read?
Answer: 3 µM

Question: For `COc1ccc(CCC(=O)Nc2c(O)cccc2O)cc1O` [Example 89], which “MED value (minimum effective dose)” value is on record?
Answer: 10 µM

Question: `COC(=O)C(Cc1c[nH]c2cc(F)ccc12)NC(=O)c1c(O)cccc1O` (stereo not drawn) [Example 17] was tested. Which “MED value (minimum effective dose)” value did it give?
Answer: 1 µM

Question: How did the “MED value (minimum effective dose)” value turn out when `O=C(CCc1ccc2c(c1)OCO2)N[C@@H](Cc1c[nH]c2ccccc12)C(=O)O` [Example 66] was run?
Answer: 3 µM

Question: With `COC(=O)[C@H](Cc1ccccc1)NC(=O)c1c(O)cc(C)cc1O` [Example 118] as the compound, how does the “MED value (minimum effective dose)” value read?
Answer: 10 µM

Question: With `CC(Cc1c[nH]c2ccccc12)(NC(=O)c1c(O)cccc1O)C(=O)O` (stereo not drawn) [Example 18] as the compound, how does the “MED value (minimum effective dose)” value read?
Answer: 3 µM

Question: Which “MED value (minimum effective dose)” value does the source give for `Cc1cc(O)c(C(=O)NCCc2c[nH]c3ccccc23)c(O)c1` [Example 124] here?
Answer: 3 µM
